Tests used:
RAW264.7 cells = assay: Cytotoxicity test, CCK-8 cell viability of RAW264.7 cells (24 h); assay type: cell-based, mice; settings: 10 μM, RAW264.7 cell viability
Method: RAW264.7 cells were inoculated into a 96-well plate at a density of 1×10^5 per well. When the cell density was 70%-80%, the RAW264.7 cells were pretreated with 10 mM working solutions prepared from 18 balasubramide derivatives at a final concentration of 10 μM for 24 h, and then the cell viability was determined by a CCK-8 method.

[1] = test system: TNF-α in RAW264.7 macrophages stimulated by lipopolysaccharide; assay: TNF-α ELISA in cell supernatant of LPS-stimulated RAW264.7 macrophages; assay type: cell-based, mice; settings: 10 μM; for activity at 10 µM: Mus musculus, RAW264.7, 2 h, 3 h pretreatment, LPS 100 ng/mL 2 h, RAW264.7, read-out: Percentage of TNF-α in a model group (%)
Method: RAW264.7 cells were inoculated into a 96-well plate at a density of 1×10^5 per well. When the cell density was 70%-80%, 18 balasubramide derivatives were prepared into 10 mM working solutions with DMSO, respectively, and then used to pretreat mononuclear macrophages RAW264.7 of mice at a final concentration of 10 μM. After 3 h, lipopolysaccharide (LPS, 100 ng/mL) was added into all wells for action for 2 h except for a control group. A supernatant was collected for later use, and the expression level of an inflammatory factor TNF-α in the cell supernatant was detected according to an operation instruction of a commercial ELISA kit.
RAW264.7 cells were inoculated into a 96-well plate at a density of 1×10^5 per well. When the cell density was 70%-80%, the RAW264.7 cells were pretreated with (+)3C-20 ([…]). After 3 h, lipopolysaccharide (LPS, 100 ng/mL) was added into all wells for action for 2 h except for a control group. The expression level of an inflammatory factor TNF-α in a cell supernatant was detected according to an operation instruction of a commercial ELISA kit, and the cell viability at different administration concentrations of (+)3C-20 was determined according to an operation instruction of a CCK-8 kit.

[2] = test system: mice with acute lung injury caused by intratracheal instillation of lipopolysaccharide; assay: Acute lung injury caused by lung exposure to bacterial endotoxin (intratracheal instillation of LPS); assay type: in vivo, ICR mice
Method: Grouping, administration and modeling of animals: Male ICR mice were used as experimental animals, which were randomly divided into a control group, a model group, a positive administration group and administration groups according to the body weight. The control group and the model group were administered with a solvent by intraperitoneal injection (the solvent was prepared from DMSO, Kolliphor HS15 and Saline at a ratio of 1:2:7), the positive administration group was administered with 5 mg/kg dexamethasone by intraperitoneal injection, and the administration groups were administered with (+)3C-20 at a concentration of 10 mg/kg and 50 mg/kg, respectively, by intraperitoneal injection. The dexamethasone and the (+)3C-20 were dissolved in the above solvent and were clear and transparent. The administration was continued for 3 days. 2 h after the last administration, the mice were anesthetized with 2.5% isoflurane, necks were disinfected, cortices of the necks were cut, and tracheae were separated. All other groups were administered with 50 μL of 10 mg/mL LPS (LPS dissolved in Saline) at a dose of 20 mg/kg by instillation while the control group was administered with 50 μL of Saline by intratracheal instillation (it.), and the cortices were sutured. 6 h after the instillation of LPS, the mice were sacrificed, and serum and lung tissues were taken for later use. Body weight and lung index: The mice were weighed and randomly divided on day 1 and continuously weighed for 3 days before administration. 2 h after the last administration, the mice were administered with 50 μL of […] LPS by intratracheal instillation. 6 h later, the mice were dissected, and the lungs were taken and weighed.
On day 3, 6 h after the intratracheal instillation of LPS, a part of the mice were subjected to perfusion with PBS and treated with paraformaldehyde to fix the right lobe of the lungs, another part of the mice were dissected to obtain lungs, and the lungs were frozen with liquid nitrogen for later use. The fixed right lungs were stained with hematoxylin-eosin (H&E) after dehydration, paraffin embedding and sectioning. 40 mg of the frozen lungs were cut, 300 μL of an RIPA lysis buffer was added thereto and homogenized by starting for 45 s and stopping for 15 s at a frequency of 60 Hz in 4 cycles for full lysis, and then centrifuged at 12,000 rpm at 4° C. A supernatant was taken, the protein concentration was calibrated and adjusted with a BCA protein assay kit, and then the level of an inflammatory factor TNF-α in lung tissue homogenates of various groups was detected by a commercial TNF-α ELISA kit. Results are shown in Table 10, FIG. 10-1 and FIG. 10-2.
A small amount of frozen lung tissues were taken, a Trizol lysis reagent was added thereto and fully ground, RNA was extracted according to an operation instruction of an RNA extraction kit, and the expression of inflammation related genes in the lung tissues was detected by an RT-PCR technology. Experimental results are shown in Table 11, FIG. 11-1 and FIG. 11-2.

[3] = test system: mice with sepsis and lung injury caused by intraperitoneal injection of lipopolysaccharide; assay: Acute lung injury caused by sepsis (intraperitoneal injection of lipopolysaccharide); assay type: in vivo, ICR mice
Method: Administration and grouping of animals: Male ICR mice were used as experimental animals, which were randomly divided into a control group, a model group, a positive administration group and administration groups according to the body weight. The control group and the model group were administered with a solvent by intraperitoneal injection (the solvent was prepared from DMSO, Kolliphor HS15 and Saline at a ratio of 1:2:7), the positive administration group was administered with 5 mg/kg dexamethasone (DEX) by intraperitoneal injection, and the administration groups were administered with (+)3C-20 at a concentration of 10 mg/kg and 50 mg/kg, respectively, by intraperitoneal injection. The dexamethasone and the (+)3C-20 were dissolved in the above solvent and were clear and transparent. The administration was continued for 3 days. 2 h after the last administration, all the other groups were administered with LPS (10 mg/kg) by intraperitoneal injection while the control group was administered with an equal volume of normal saline by intraperitoneal injection. Body weight and lung index: The mice were weighed and randomly divided on day 1 and continuously weighed for 3 days before administration, and growth conditions of the mice were measured by statistics. The mice were administered with LPS by intraperitoneal injection 2 h after administration on day 3, then the mice were dissected 6 h later, and the lungs were taken, weighed and recorded.
On day 3, 6 h after the intraperitoneal injection of LPS, whole blood was collected from eye sockets and then subjected to centrifugation to prepare serum, and the serum was frozen at −80° C. The lungs were subjected to perfusion with PBS and fixed by paraformaldehyde, and the fixed lungs were stained with hematoxylin-eosin (H&E) after dehydration, paraffin embedding and sectioning. The serum was tested by a commercial TNF-α ELISA kit. Histopathological results and data statistics are shown in FIG. 7-1, FIG. 7-2 and Table 7.
A small amount of frozen lung tissues were taken and fully ground, and the expression of inflammation related genes in the lung tissues was detected by an RT-PCR technology according to an operation instruction of an RNA extraction kit.

[4] = 5 mg/kg i.p., lung tissue RT-PCR, intratracheal LPS
[5] = 5 mg/kg intraperitoneal, intratracheal LPS model, in g (unit assumed)
[6] = 5 mg/kg i.p., lung tissue RT-PCR, i.p. LPS
[7] = 5 mg/kg intraperitoneal, i.p. LPS sepsis model, in g (unit assumed)

O=C(CCc1ccc(C(F)(F)F)cc1)O[C@@H]1C(=O)NCCc2c([nH]c3cc(Cl)ccc23)[C@H]1c1ccc(C(F)(F)F)cc1 [(+)-B3f]
Percentage of CCK-8 in a model group (%) (RAW264.7 cells): 96.96 ± 3.85% | activity at 10 µM [1]: 90.2 ± 2.92%

C=CCn1c2c(c3ccccc31)CCNC(=O)[C@@H](OC(=O)CCc1ccc(C(F)(F)F)cc1)[C@@H]2c1ccc(C(F)(F)F)cc1 [(+)-c4]
Percentage of CCK-8 in a model group (%) (RAW264.7 cells): 110.28 ± 1.56% | activity at 10 µM [1]: 96.1 ± 1.48%

Cn1c2c(c3ccccc31)CCNC(=O)[C@@H](OC(=O)CCc1ccc(C(F)(F)F)cc1)[C@@H]2c1ccc(C(F)(F)F)cc1 [(+)-c1]
Percentage of CCK-8 in a model group (%) (RAW264.7 cells): 105.02 ± 2.84% | activity at 10 µM [1]: 83.4%

O=C(CCc1ccc(C(F)(F)F)cc1)O[C@@H]1C(=O)NCCc2c([nH]c3ccc(OCc4ccccc4)cc23)[C@H]1c1ccc(C(F)(F)F)cc1 [(+)-B3h]
Percentage of CCK-8 in a model group (%) (RAW264.7 cells): 99.75 ± 1.27% | activity at 10 µM [1]: 66.1%

CC(C)(C)OC(=O)N[C@H](CC(=O)O[C@@H]1C(=O)NCCc2c([nH]c3ccccc23)[C@H]1c1ccc(C(F)(F)F)cc1)c1ccc(C(F)(F)F)cc1 [(+)-c5]
Percentage of CCK-8 in a model group (%) (RAW264.7 cells): 110.66 ± 0.55% | activity at 10 µM [1]: 71.77 ± 0.56%

O=C(CCc1ccc(C(F)(F)F)cc1)O[C@@H]1C(=O)NCCc2c([nH]c3ccc(F)cc23)[C@H]1c1ccc(C(F)(F)F)cc1 [(+)-B3d]
Percentage of CCK-8 in a model group (%) (RAW264.7 cells): 90.33 ± 5.86% | activity at 10 µM [1]: 101 ± 4.46%

O=C(CCc1ccc(C(F)(F)F)cc1)O[C@@H]1C(=O)NCCc2c([nH]c3cccc(F)c23)[C@H]1c1ccc(C(F)(F)F)cc1 [(+)-B3a]
Percentage of CCK-8 in a model group (%) (RAW264.7 cells): 103.22 ± 1.79% | activity at 10 µM [1]: 91.2 ± 3.03%

O=C(CCc1ccc(C(F)(F)F)cc1)O[C@@H]1C(=O)NCCc2c([nH]c3ccc(Br)cc23)[C@H]1c1ccc(C(F)(F)F)cc1 [(+)-B3e]
Percentage of CCK-8 in a model group (%) (RAW264.7 cells): 95.66 ± 4.02% | activity at 10 µM [1]: 76.2%

O=C1NCCc2c([nH]c3ccccc23)[C@@H](c2ccc(C(F)(F)F)cc2)[C@@H]1O [(+)-3C]
Percentage of CCK-8 in a model group (%) (RAW264.7 cells): 105.39 ± 4.26% | activity at 10 µM [1]: 86.4 ± 3.06%

O=C1NCCc2c([nH]c3ccc(Br)cc23)[C@@H](c2ccccc2)[C@@H]1O [B001]
Percentage of CCK-8 in a model group (%) (RAW264.7 cells): 108.8 ± 2.72% | activity at 10 µM [1]: 71.9 ± 3.5%

COc1ccc2[nH]c3c(c2c1)CCNC(=O)[C@@H](OC(=O)CCc1ccc(C(F)(F)F)cc1)[C@@H]3c1ccc(C(F)(F)F)cc1 [(+)-B3c]
Percentage of CCK-8 in a model group (%) (RAW264.7 cells): 96.16 ± 4.12% | activity at 10 µM [1]: 84.5%

CCn1c2c(c3ccccc31)CCNC(=O)[C@@H](OC(=O)CCc1ccc(C(F)(F)F)cc1)[C@@H]2c1ccc(C(F)(F)F)cc1 [(+)-c2]
Percentage of CCK-8 in a model group (%) (RAW264.7 cells): 102.17 ± 2.74% | activity at 10 µM [1]: 101 ± 1.21%

C[C@@H]1C[C@H]2[C@@H]3CCC4=CC(=O)C=C[C@]4(C)[C@@]3(F)[C@@H](O)C[C@]2(C)[C@@]1(O)C(=O)CO [Dexamethasone, dexamethasone, reference compound]
Content of TNF-α in a lung tissue homogenate (% of Model) ([2]; 5 mg/kg i.p., 6 h after intratracheal LPS): 54.882 ± 6.836 % of Model | Area percentage of alveolar cells (%) ([2]; 5 mg/kg i.p., 6 h after intratracheal LPS, H&E lung sections): 34.322 ± 2.452 % | Change multiple of COX-2 [2, 4]: 2.75 ± 0.24 | Change multiple of IL-1β [2, 4]: 12.38 ± 1.28 | Change multiple of IL-6 [2, 4]: 14.75 ± 2.71 | Change multiple of TNF-α [2, 4]: 18.63 ± 2.26 | Change multiple of iNOS [2, 4]: 10.02 ± 1.78 | Lung index (%) ([2]; 5 mg/kg intraperitoneal 3 days, 6 h after intratracheal LPS): 0.591 ± 0.008 % | Body weight (Day 1) [2, 5]: 27.51 ± 0.11 | Body weight (Day 2) [2, 5]: 28.75 ± 0.17 | Body weight (Day 3) [2, 5]: 29.48 ± 0.17 | Content of TNF-α in serum (% of Model) ([3]; 5 mg/kg i.p., 6 h after i.p. LPS): 40.09 ± 2.26 % of Model | Area percentage of alveolar cells (%) ([3]; 5 mg/kg i.p., 6 h after i.p. LPS, H&E lung sections): 32.2 ± 0.95 % | Change multiple of IL-1β [3, 6]: 8.65 ± 1.04 | Change multiple of IL-6 [3, 6]: 40.56 ± 7.55 | Change multiple of TNF-α [3, 6]: 6.09 ± 0.82 | Change multiple of iNOS [3, 6]: 2.61 ± 0.39 | Lung index (%) ([3]; 5 mg/kg intraperitoneal 3 days, 6 h after i.p. LPS 10 mg/kg): 0.649 ± 0.01 % | Body weight (Day 1) [3, 7]: 25.11 ± 0.52 | Body weight (Day 2) [3, 7]: 26.23 ± 0.38 | Body weight (Day 3) [3, 7]: 26.97 ± 0.45

O=C(CCc1ccc(C(F)(F)F)cc1)O[C@@H]1C(=O)NCCc2c([nH]c3ccc(OC(=O)c4ccc([N+](=O)[O-])cc4)cc23)[C@H]1c1ccc(C(F)(F)F)cc1 [(+)-D7c]
Percentage of CCK-8 in a model group (%) (RAW264.7 cells): 109.17 ± 0.16% | activity at 10 µM [1]: 74.5 ± 3.55%

O=C(CCc1ccc(C(F)(F)F)cc1)O[C@@H]1C(=O)NCCc2c([nH]c3ccccc23)[C@H]1c1ccc(C(F)(F)F)cc1 (racemic) [(±)-3C-20]
anti-inflammatory activity (inhibition of expression of TNF-α in macrophages), in words ([1]; RAW264.7, LPS): better anti-inflammatory activity than other derivatives

From US20240300959A1, “BALASUBRAMIDE DERIVATIVE AND USE THEREOF IN PREPARATION OF MEDICINE FOR TREATING ACUTE LUNG INJURY” (Guangdong Pharmaceutical University, priority 2023, published 2024)
